Where two headings read alike, the source gives them in different places.

In assay [1] the target is T1, Neutrophil Lipoxygenase (Cavia porcellus, UniProt A0A286X958).
T1 construct: peritoneal neutrophils derived from guinea pigs; endogenous in cells; host or cells: guinea pig peritoneal neutrophils
T1 sequence (A0A286X958 1-674): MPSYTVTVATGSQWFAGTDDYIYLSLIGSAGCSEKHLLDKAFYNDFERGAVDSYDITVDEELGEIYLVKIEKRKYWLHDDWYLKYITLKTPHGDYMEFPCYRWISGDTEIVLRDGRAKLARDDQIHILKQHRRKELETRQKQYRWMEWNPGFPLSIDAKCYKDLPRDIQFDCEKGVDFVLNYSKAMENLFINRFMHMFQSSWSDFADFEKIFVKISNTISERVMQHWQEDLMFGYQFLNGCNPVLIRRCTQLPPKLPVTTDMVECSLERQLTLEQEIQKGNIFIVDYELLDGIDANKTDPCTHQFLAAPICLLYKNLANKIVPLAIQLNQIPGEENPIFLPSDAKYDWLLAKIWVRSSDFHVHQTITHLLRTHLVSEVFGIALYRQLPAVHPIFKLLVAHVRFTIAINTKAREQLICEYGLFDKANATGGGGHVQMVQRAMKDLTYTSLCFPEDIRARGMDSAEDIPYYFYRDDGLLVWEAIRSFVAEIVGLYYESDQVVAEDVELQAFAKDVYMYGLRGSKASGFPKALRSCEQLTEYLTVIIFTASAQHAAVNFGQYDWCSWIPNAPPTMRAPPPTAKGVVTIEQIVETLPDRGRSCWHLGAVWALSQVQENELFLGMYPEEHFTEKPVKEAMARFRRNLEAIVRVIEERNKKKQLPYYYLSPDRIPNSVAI
In words: Inhibition of neutrophil lipoxygenase (release and biosynthesis of LTB4 and 5-HETE) in guinea pig neutrophils. Format: cell-based. The settings on record: 10 μg/ml compound, 100 μM arachidonic acid and 20 μM calcium ionophore (A23187), the lower the percentage, the more active. The protocol:
The ability of these compounds to inhibit lipoxygenase activity in terms of the suppression of the release and biosynthesis of leukotriene B4 (LTB4) and 5-hydroxyeicosatetraenoic acid (5-HETE) was measured as follows.
In this assay 3×10^7 peritoneal neutrophils derived from guinea pigs were incubated at 37° C. in Dulbeccos buffer containing 50 mM tris buffer (pH 7.4). Five minutes before the addition of 100 μM arachidonic acid and 20 μM calcium ionophore (A23187), control vehicle or the test compounds were added to the neutrophils at a concentration of 10 μg/ml.
Three minutes after the addition of arachidonic acid and calcium ionophore the total lipid was partitioned into chloroform after adjusting the pH to 3 with citric acid and the addition of equal parts of methanol and chloroform.
The 5-HETE and LTB4 were resolved by HPLC using a 5M, 4×25 cm octadecyl silica column (IBM Instruments) with 70-80% methanol in water adjusted to pH 3.0 with acetic acid. As the mobile phase was pumped at 1.0 ml/minute, LTB4 and 5-HETE were detected by absorbance at 270 and 236 nm, respectively.
LTB4 and 5-HETE were quantitated by comparison with the control and the results were expressed as a percent of control.

For assay [2], the system named is immunologically stimulated human basophils. In words: Inhibition of histamine release from immunologically stimulated human basophils. Format: cell-based. The note with it: 1 h; human basophils challenged with anti-IgE or antigen; 60 minutes at 37° C.; active if ED50 ≤48 μM; read-out: ED50 (concentration which causes a 50% inhibition of histamine release). The protocol: The novel compounds of this invention have been tested by the procedure of Lichtenstein, L. M. and Osler, A. G., J. Exp. Med., 120, 507-530 (1964), which evaluated the ability of compounds to inhibit mediator (histamine) release from immunologically stimulated human basophils.
Dissolve 140.3 g of sodium chloride, 7.45 g of potassium chloride and 74.5 g of Trizma-Tris Pre-Set, Reagent Grade, pH 7.6, at 25° C. (Sigma Chemical Co.) in sufficient water to give a final volume of 2 liters.
(Sigma Chemical Co.) (30 mg/ml)
Made to 0.75M and 0.5M respectively, with calcium chloride dihydrate and magnesium chloride hexahydrate.
A 10 ml portion of 10× Tris Buffer and 1.0 ml of human albumin are diluted to 100 ml with water.
A 10 ml portion of 10× Tris Buffer, 1.0 ml of human albumin, 0.8 ml of calcium stock and 0.2 ml of magnesium stock are diluted to 100 ml with water.
Behring Diagnostics (Generally used at […] final concentration).
Strength 1:100 (w:v) allergenic extract, Hollister-Stier Labs. Generally this is diluted 1:1000 to 1:10,000 (considering the vial as stock).
Intradermal solutions of intramuscular preparations for hyposensitization, Hollister-Stier Labs. The final concentration used is on the order of 1 PNU/ml.
Eighty milliliters of blood is withdrawn from subjects with known histamine release to anti-IgE, ragweed antigen or other specific allergen, using four 20 ml heparinized tubes. This 80 ml of blood is mixed with 20 ml of saline containing 0.6 g of dextrose and 1.2 g of dextran. The blood is allowed to sediment at room temperature in two 50 ml polycarbonate centrifuge tubes until a sharp interface develops between the red cells and plasma (60-90 minutes). The plasma (top) layer from each tube is withdrawn by pipet and transferred to respective 50 ml polycarbonate tubes. The plasma is centrifuged for 8 minutes at 110×G at 4° C. The supernatant is carefully poured off as completely as possible and the cell button is resuspended in 2-3 ml of Tris-A buffer using a silconized Pasteur pipet. The resuspension is accomplished by drawing the liquid gently in an out of the pipet, with the tip below the liquid, until and even suspension of cells is obtained. Sufficient Tris-A buffer is then added to bring the volume in the tube to about 45 ml and the tube is centrifuged at 110×G for 8 minutes at 4° C. The supernatant is poured off and the cell button is resuspended and centrifuged as described above. The supernatant is poured off and the cell button suspended in 2-3 ml of Tris-ACM buffer to make the final volume sufficient to allow addition to the reaction tubes.
Reaction tubes containing anti-IgE or antigens, either alone or with test compound in a total volume of 0.2 ml are prepared and placed in a 37° C. bath. The cells are warmed to 37° C. and frequently swirled to ensure and even suspension, while 1.0 ml aliquots are added to each reaction tube. The tubes are then incubated for 60 minutes at 37° C., vortexing the tubes gently every 15 minutes to keep the cells evenly suspended. When the reaction is complete, the tubes are centrifuged at 4° C. for 10 minutes at 1500 rpm to sediment the cells. One ml aliquots of supernatant are transferred to 12 mm by 75 mm polyethylene tubes and 0.2 ml of 8% perchloric acid is added to each tube. Blanks and totals are included in each test. The blanks have cells and all reagents except antigent or anti-IgE. The totals contain 0.24 ml of 8% perchloric acid, one ml of cells and 0.2 ml of buffer. […]

Where [3] appears, read: 5-HETE, read-out: 5-HETE, % of Control.
The mark [4] stands for this setting: LTB4, read-out: LTB4, % of Control.

For `O=C1C=C(N2CCN(c3nc4ccccc4o3)CC2)C(=O)c2ncccc21` [7-[4-(2-Benzoxazolyl)-1-piperazinyl]-5,8-quinolinedione], the remaining activity at 10 µg/mL in assay [1] (setting [3]) stood at 22.7%; in assay [1] (setting [4]), 35.8%. For `O=C1C(N2CCN(c3cccc(C(F)(F)F)c3)CC2)=CC(=O)c2ncccc21` [6-[4-[3-(Trifluromethyl)phenyl]-1-piperazinyl]-5,8-quinolinediones], in that order: 11.9% and 5.7%. In the case of `CCOC(=O)N1CCN(C2=CC(=O)c3ncccc3C2=O)CC1` [4-(5,8-Dihydro-5,8-dioxo-6-quinolyl)-1-piperazinecarboxylic acid ethyl ester], the IC50 in assay [2] was 17.4 µM. For the compound `O=C1C=C(N2CCN(c3nc4ccccc4s3)CC2)C(=O)c2nccnc21` [6-[4-(2-Benzothiazoyl)-1-piperazinyl]-5,8-quinoxalinedione], the IC50 in assay [2] stood at 1.2 µM. Further, the remaining activity at 10 µg/mL in assay [1] (setting [3]) is 67.2%; in assay [1] (setting [4]), 8%. For the compound `O=C1C=C(N2CCN(c3cccc(C(F)(F)F)c3)CC2)C(=O)c2nccnc21` [6-[4-[3-(Trifluoromethyl)phenyl]-1-piperazinyl]-5,8-quinoxalinedione], in assay [2], the IC50 was determined as 6.6 µM. Further, the remaining activity at 10 µg/mL amounted to 1.6% in assay [1] (setting [3]) and 0% in assay [1] (setting [4]). On to `O=C1C(N2CCN(Cc3ccccc3)CC2)=CC(=O)c2ncccc21` [6-[4-(Phenylmethyl)-1-piperazinyl]-5,8-quinolinedione], for which, in assay [2], the IC50 is 12.1 µM. Turning to `O=C1C=C(N2CCN(Cc3ccccc3)CC2)C(=O)c2nccnc21` [6[4-(Phenylmethyl)-1-piperazinyl]-5,8-quinoxalinedione], the remaining activity at 10 µg/mL in assay [1] (setting [3]) worked out at 53.9%; in assay [1] (setting [4]) it was 8%. On to `CCOC(=O)N1CCN(C2=CC(=O)c3nccnc3C2=O)CC1` [4-(5,8-dihydro-5,8-dioxo-6-quinoxalinyl)-1-piperazine carboxylic acid ethyl ester], for which the IC50 in assay [2] turned out to be 3.7 µM. In the case of `O=C1C(N2CCN(c3nc4ccccc4o3)CC2)=CC(=O)c2ncccc21` [6-[4-(2-Benzoxazolyl)-1-piperazinyl]-5,8-quinolinedione], the figures for the remaining activity at 10 µg/mL in assay [1] (setting [3]) and in assay [1] (setting [4]) were 36.9% and 8%, respectively.

The values above are taken from patent US4742059A, “Substituted quinoxalinediones and their methods of use” (American Cyanamide Company, priority 1987, dated 1988).
